# Like-named read-outs stand apart in the source and are kept apart here.
# Key:
# [1] = test system: vascular endothelial growth factor (VEGF); assay: Brain VEGF gene expression in mice after intravenous injection; type: in vivo, Swiss Webster mice; settings: 20 mg/kg i.v., four hours, quantitative real time PCR normalized to 18s RNA
# Procedure: The effect of compounds of the present invention on regulation of cytoprotective and neuroprotective gene expression in brain was evaluated. In one series of experiments, male Swiss Webster mice were administered by intravenous injection various compounds of the present invention. Animals treated by intravenous injection received a 6 ml/kg volume of either 5% Dextrose with an equimolar amount of Meglumine (vehicle control) or 20 mg/kg of a compound of the present invention in 5% dextrose with an equimolar amount of Meglumine Animals were euthanized four hours later and their brains placed in RNAlater (Ambion, Austin Tex.) for subsequent analysis. Tissues were homogenized in Trizol (Invitrogen, Carlsbad Calif.) using 5-mm steel beads in a Mixer Mill (Qiagen, Valencia Calif.). RNA was isolated from the Trizol solution and then further purified using RNeasy kit (Qiagen). cDNA was prepared from […] total RNA using Omniscript reverse transcriptase (Qiagen) and random hexamers. Quantitative real time PCR was performed in a 7900HT instrument (Applied Biosystems, Foster City Calif.) using TaqMan Assays-on-Demand (Applied Biosystems). Gene expression levels were normalized to that of 18s RNA.
# VEGF [2] = assay: Plasma VEGF in mice after intravenous injection; type: in vivo, Swiss Webster mice; settings: mouse plasma, 20 mg/kg i.v., four hours after injection; for fold induction at 20 mg/kg: iv, 4 h, read-out: VEGF Fold Increase
# How it was run: (§1)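 Male Swiss Webster mice (29-34 g) received 20 mg/kg compound or vehicle by tail-vein injection in 5% dextrose with equimolar NaOH or meglumine. Plasma was collected 4 h later, and EPO and VEGF were measured by ELISA.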
# erythropoietin (EPO) [3] = assay: EPO expression in Kelly neuroblastoma cells; type: cell-based; settings: for EPO: conditioned media after overnight incubation
# How it was run: (§2)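 Kelly neuroblastoma cells treated overnight with compound, 1% DMSO as negative control. EPO and VEGF secreted into conditioned media measured by QUANTIKINE immunoassay.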
# erythropoietin (EPO) [4] = assay: EPO expression in Hep3B cells (QUANTIKINE immunoassay of conditioned media); type: cell-based, Human; settings: for Fold Increase Over Control: EPO, vs 1% DMSO control; for EPO: conditioned media after overnight incubation with compound
# How it was run: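 Confluent Hep3B cells were switched to OPTI-MEM for about 24 h (20% O2, 5% CO2, 37 °C), then treated overnight with compound or 1% DMSO vehicle. EPO secreted into the conditioned medium was measured by QUANTIKINE immunoassay.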
# erythropoietin [5] = assay: Plasma EPO in mice after intravenous injection; type: in vivo, Swiss Webster mice; settings: mouse plasma, 20 mg/kg i.v., four hours after injection; for fold induction at 20 mg/kg: iv, 4 h, read-out: EPO Fold Increase
# How it was run: as §1
# erythropoietin [6] = assay: Plasma EPO in mice after oral gavage; type: in vivo, Swiss Webster mice; settings: mouse plasma, oral gavage 6-60 mg/kg, six hours
# Procedure: (§3) In another series of experiments, male Swiss Webster mice (29-34 g) were administered various compounds of the present invention via oral gavage using a ball-tipped gavage needle. Animals treated by oral gavage received a 4-10 ml/kg volume of either 0.5% carboxymethyl cellulose with or without 0.1% Polysorbate 80 (vehicle control) or various doses (6-60 mg/kg) of a compound of the present invention in 0.5% CMC, with or without 0.1% Polysorbate 80. Blood samples were collected and tissues were processed as described above. Six hours after injection, the animals were anesthetized and exsanguinated.
# (§4) Plasma samples were collected in EDTA and heparin coated microtainer tubes. Plasma samples were assayed for erythropoietin and VEGF using commercially-available ELISA kits purchased from R & D Systems (Minneapolis Minn.).
# VEGF [7] = assay: Plasma VEGF in mice after oral gavage; type: in vivo, Swiss Webster mice; settings: mouse plasma, oral gavage 6-60 mg/kg, six hours
# Procedure: as §3, §4
# [8] = test system: vascular endothelial growth factor (VEGF); assay: VEGF expression in Kelly neuroblastoma cells; type: cell-based; settings: for VEGF: conditioned media after overnight incubation
# How it was run: as §2
# [9] = test system: C57BL/6 mice, permanent occlusion of the MCA; assay: Permanent middle cerebral artery occlusion (pMCAO) in C57BL/6 mice: infarct volume and edema; type: in vivo; settings: C57BL/6 mice pMCAO, 20-60 mg/kg i.v.; for inhibition in vivo at up to 20 mg/kg: Mus musculus, iv, 24 h, 24 hours after MCA occlusion, read-out: Percent Reduction in Infarct Volume
# Procedure: The effect of compounds of the present invention on infarct volume and edema associated with stroke was examined in an animal model of ischemic stroke. In these studies, mice were subjected to permanent occlusion of the middle cerebral artery. Mice were anesthetized intraperitoneally with avertin (0.5 mg/g). Mice were then immobilized in a rodent stereotaxic frame (Kopf Instruments, Tujunga Calif.) and maintained with avertin as needed. The surgical area of the head was swabbed with 70% ethanol and a lateral incision was made between the right orbit and the right ear. […] The distal course of the middle cerebral artery (MCA) was visible through the translucent skull. A small burr-hole craniotomy was performed with a micro-drill (Fine Science Tools, Foster City Calif.). The meninges/dura was removed and the MCA was coagulated by bipolar diathermy. The muscle and soft tissue were replaced and the incision closed with vet-bond adhesive (3M, St. Paul Minn.). These studies were performed in two different mouse models of pMCAO as described below.
# In one series of experiments, male C57BL/6 mice (25-35 g) were subjected to permanent occlusion of the MCA as described above. Compounds of the present invention were administered by intravenous injection at various times before or after MCA occlusion (see Table 7). Animals administered compound by intravenous injection received a 6 ml/kg volume of either 5% Dextrose with an equimolar amount of Meglumine (vehicle control) or 20-60 mg/kg of a compound of the present invention in 5% dextrose with an equimolar amount of Meglumine. Body temperature of the animals was maintained by use of a heating pad both during and after surgery. Twenty-four hours after MCA occlusion animals were euthanized with CO2 and their brains removed. After removal, the brain was sliced in 7 coronal sections, each 1 mm thick. The sections were placed rostral side down in a petri dish and stained with 1% Triphenyl tetrazolium chloride for 20 minutes at 37° C. for determination of infarct volume. Brain sections were then digitally photographed and analyzed for changes in infarct volume and extent of edema. Infarct volumes were determined by measuring the infarcted (i.e., non-stained) areas of each brain section and multiplying this value by the section thickness. Extent of edema was determined by the net increase in volume of the ipsilateral cortex compared to that of the contralateral cortex of brain sections.
# The effect of compounds of the present invention administered at various times following the onset of stroke was examined further as follows. In these studies, changes in infarct volume were measured using an animal model of stroke when compounds of the present invention were administered from 0 to 8 hours following permanent MCA occlusion. In one series of experiments, male C57BL/6 mice (25-35 g) were subjected to permanent occlusion of the MCA as described above. Compound F was administered to the animals by a single intravenous bolus injection at various times up to 5 hours after MCA occlusion (see Table 8 below). Animals administered compound by intravenous injection received a 6 ml/kg volume of either 5% Dextrose with an equimolar amount of NaOH (vehicle control) or 60 mg/kg of Compound F in 5% dextrose with an equimolar amount of NaOH. Body temperature of the animals was maintained by use of a heating pad both during and after surgery. Changes in infarct volumes were determined as described above.
# In another set of experiments, male C57BL/6 mice (25-35 g) were subjected to permanent occlusion of the MCA as described above. Compound F was administered by single intravenous bolus injection at various times up to 8 hours after MCA occlusion (see Table 9 below). Animals administered compound by intravenous injection received a 6 ml/kg volume of either 5% Dextrose with an equimolar amount of Meglumine (vehicle control) or 60 mg/kg of Compound F in 5% dextrose with an equimolar amount of Meglumine. […]
# [10] = compound given 4 hr after occlusion
structure (smiles),measurement,setting,value
"Cc1nc(C(=O)NCC(=O)O)c(O)c2cc(Oc3ccccc3)ccc12 [Compound AA, [(4-Hydroxy-1-methyl-6-phenoxy-isoquinoline-3-carbonyl)-amino]-acetic acid]",VEGF gene expression in brain,[1],2.1
"O=C(O)CNC(=O)c1ncc2ccc(Sc3ccccn3)cc2c1O [Compound AB, {[4-Hydroxy-6-(pyridin-2-ylsulfanyl)-isoquinoline-3-carbonyl]-amino}-acetic acid]",VEGF gene expression in brain,[1],2.1
"O=C(O)CNC(=O)c1ncc2cc(Sc3ccccc3)ccc2c1O [Compound E, [(4-Hydroxy-7-phenylsulfanyl-isoquinoline-3-carbonyl)-amino]-acetic acid]",fold induction at 20 mg/kg,VEGF [2],1.58
same,VEGF,VEGF [2],66.5 pg/mL
same,EPO Fold Increase,erythropoietin (EPO) [3],9.0
same,EPO,erythropoietin (EPO) [3],55.8 mIU/ml
same,Fold Increase Over Control,erythropoietin (EPO) [4],17.0
same,EPO,erythropoietin (EPO) [4],127.6 mIU/ml
same,EPO,erythropoietin [5]; human EPO ELISA kit (*),122 mIU/ml
same,EPO,erythropoietin [6]; human EPO ELISA kit (*),17.4 mIU/ml
same,VEGF,VEGF [7],65.4 pg/mL
same,VEGF Fold Increase,VEGF [7],1.63
same,VEGF Fold Increase,[8],15.8
same,VEGF,[8],2495.8 pg/mL
same,Percent Reduction in Edema,[9]; compound given −6 hr,54%
same,inhibition in vivo at up to 20 mg/kg,[9]; [10],9%
same,inhibition in vivo at up to 20 mg/kg,[9]; compound given −6 hr,51%
"O=C(O)CNC(=O)c1ncc2cc(Oc3ccc(F)cc3)ccc2c1O [Compound G, {[7-(4-Fluoro-phenoxy)-4-hydroxy-isoquinoline-3-carbonyl]-amino}-acetic acid]",fold induction at 20 mg/kg,VEGF [2],2.46
same,VEGF,VEGF [2],86.5 pg/mL
same,EPO Fold Increase,erythropoietin (EPO) [3],5.5
same,EPO,erythropoietin (EPO) [3],34.4 mIU/ml
same,Fold Increase Over Control,erythropoietin (EPO) [4],5.1
same,EPO,erythropoietin (EPO) [4],73.4 mIU/ml
same,fold induction at 20 mg/kg,erythropoietin [5],270
same,EPO,erythropoietin [5]; human EPO ELISA kit (*),162 mIU/ml
same,EPO Fold Increase,erythropoietin [6],123.57
same,EPO,erythropoietin [6]; human EPO ELISA kit (*),173 mIU/ml
same,VEGF,VEGF [7],110.8 pg/mL
same,VEGF Fold Increase,VEGF [7],2.58
same,VEGF Fold Increase,[8],14.4
same,VEGF,[8],2271.5 pg/mL
same,inhibition in vivo at up to 20 mg/kg,[9]; [10],48%
"O=C(O)CNC(=O)c1nc(Cl)c2ccsc2c1O [Compound L, [(4-Chloro-7-hydroxy-thieno[3,2-c]pyridine-6-carbonyl)-amino]-acetic acid]",fold induction at 20 mg/kg,VEGF [2],0.43
same,VEGF,VEGF [2],13 pg/mL
same,EPO Fold Increase,erythropoietin (EPO) [3],5.2
same,EPO,erythropoietin (EPO) [3],98.2 mIU/ml
same,Fold Increase Over Control,erythropoietin (EPO) [4],4.2
same,EPO,erythropoietin (EPO) [4],11.1 mIU/ml
same,fold induction at 20 mg/kg,erythropoietin [5],14.6
same,EPO,erythropoietin [5]; mouse EPO ELISA kit (**),400.3 pg/mL
same,EPO Fold Increase,erythropoietin [6],11.81
same,EPO,erythropoietin [6]; mouse EPO ELISA kit (**),82.7 pg/mL
same,VEGF,VEGF [7],41 pg/mL
same,VEGF Fold Increase,VEGF [7],1.32
same,VEGF Fold Increase,[8],3.3
same,VEGF,[8],4750.0 pg/mL
same,inhibition in vivo at up to 20 mg/kg,[9]; [10],48%
"C#Cc1nc(C(=O)NCC(=O)O)c(O)c2ccsc12 [Compound M, [(7-Ethynyl-4-hydroxy-thieno[2,3-c]pyridine-5-carbonyl)-amino]-acetic acid]",fold induction at 20 mg/kg,VEGF [2],1.31
same,VEGF,VEGF [2],38 pg/mL
same,EPO Fold Increase,erythropoietin (EPO) [3],285
same,EPO,erythropoietin (EPO) [3],57 mIU/ml
same,Fold Increase Over Control,erythropoietin (EPO) [4],11.6
same,EPO,erythropoietin (EPO) [4],64.1 mIU/ml
same,fold induction at 20 mg/kg,erythropoietin [5],180
same,EPO,erythropoietin [5]; mouse EPO ELISA kit (**),161.6 pg/mL
same,EPO Fold Increase,erythropoietin [6],1.26
same,EPO,erythropoietin [6]; mouse EPO ELISA kit (**),8.8 pg/mL
same,VEGF,VEGF [7],38 pg/mL
same,VEGF Fold Increase,VEGF [7],1.23
same,VEGF Fold Increase,[8],2.0
same,VEGF,[8],1436 pg/mL
"O=C(O)CNC(=O)c1ncc2cc(Oc3ccc4c(c3)OCO4)ccc2c1O [Compound O, {[7-(Benzo[1,3]dioxol-5-yloxy)-4-hydroxy-isoquinoline-3-carbonyl]-amino}-acetic acid]",fold induction at 20 mg/kg,VEGF [2],2.21
same,VEGF,VEGF [2],64 pg/mL
same,EPO Fold Increase,erythropoietin (EPO) [3],7.93
same,EPO,erythropoietin (EPO) [3],149.8 mIU/ml
same,Fold Increase Over Control,erythropoietin (EPO) [4],14.7
same,EPO,erythropoietin (EPO) [4],97.4 mIU/ml
same,fold induction at 20 mg/kg,erythropoietin [5],174
same,EPO,erythropoietin [5]; mouse EPO ELISA kit (**),157 pg/mL
same,EPO Fold Increase,erythropoietin [6],11.87
same,EPO,erythropoietin [6]; mouse EPO ELISA kit (**),83.1 pg/mL
same,VEGF,VEGF [7],46 pg/mL
same,VEGF Fold Increase,VEGF [7],1.48
same,VEGF Fold Increase,[8],3.6
same,VEGF,[8],5235 pg/mL
same,inhibition in vivo at up to 20 mg/kg,[9]; compound given 0 hr,31%
"O=C(O)CNC(=O)c1ncc2cc(Oc3ccc4c(c3)CCO4)ccc2c1O [Compound X, {[7-(2,3-Dihydro-benzofuran-5-yloxy)-4-hydroxy-isoquinoline-3-carbonyl]-amino}-acetic acid]",fold induction at 20 mg/kg,VEGF [2],2.4
same,VEGF,VEGF [2],48 pg/mL
same,EPO Fold Increase,erythropoietin (EPO) [3],13.76
same,EPO,erythropoietin (EPO) [3],260.1 mIU/ml
same,Fold Increase Over Control,erythropoietin (EPO) [4],19.0
same,EPO,erythropoietin (EPO) [4],126.2 mIU/ml
same,EPO,erythropoietin [5]; mouse EPO ELISA kit (**),183 pg/mL
same,EPO Fold Increase,erythropoietin [6],5.86
same,EPO,erythropoietin [6]; mouse EPO ELISA kit (**),41 pg/mL
same,VEGF,VEGF [7],36 pg/mL
same,VEGF Fold Increase,VEGF [7],1.16
same,VEGF Fold Increase,[8],3.9
same,VEGF,[8],5751 pg/mL
same,inhibition in vivo at up to 20 mg/kg,[9]; compound given 0 hr,36%

# Reference: patent publication US9775902B2, “Compounds and methods for treatment of stroke” (FIBROGEN, INC, priority 2006, dated 2017)
